Data taken from patent US20250230193A1, “CYCLIC COMPOUND HAVING SELECTIVE KRAS INHIBITORY EFFECT ON HRAS AND NRAS” (CHUGAI SEIYAKU KABUSHIKI KAISHA, priority 2022, published 2025).
Where a SMILES comes first, the peptide text is derived from it. Bridges are numbered along the chain shown (N, C = ends). [ ]: non-standard residue; d: D form. The star is where a group is joined. hPhe(3,5-F2-4-CF3) = N[C@@H](CCc1cc(F)c(C(F)(F)F)c(F)c1)C(=O)O; hPhe(3-Cl-4-CF3) = N[C@@H](CCc1ccc(C(F)(F)F)c(Cl)c1)C(=O)O; NPrPhe(4-CF3) = CCCN[C@@H](Cc1ccc(C(F)(F)F)cc1)C(=O)O; NMeGly(cPent) = CN[C@H](C(=O)O)C1CCCC1; NMeD = CN[C@@H](CC(=O)O)C(=O)O; NMeL = CN[C@@H](CC(C)C)C(=O)O; αMeL = CC(C)C[C@](C)(N)C(=O)O; Morpholide = C1CN(*)CCO1; Ac5c = NC1(C(=O)O)CCCC1; Aze = O=C(O)[C@@H]1CCN1; NEtG = CCNCC(=O)O; Sar = CNCC(=O)O

Assays:
[1] = molecular target: GDP-bound NRAS wild-type protein (Homo sapiens, UniProt P01111); assay: Binding to NRAS by surface plasmon resonance (SPR), Single Cycle Kinetics; conditions: for NRAS/KRAS (ratio of KD value with respect to NRAS to KD value with respect to KRAS): GDP-bound NRAS wild-type vs GDP-bound KRAS wild-type
Sequence of GDP-bound NRAS wild-type protein (P01111 whole entry): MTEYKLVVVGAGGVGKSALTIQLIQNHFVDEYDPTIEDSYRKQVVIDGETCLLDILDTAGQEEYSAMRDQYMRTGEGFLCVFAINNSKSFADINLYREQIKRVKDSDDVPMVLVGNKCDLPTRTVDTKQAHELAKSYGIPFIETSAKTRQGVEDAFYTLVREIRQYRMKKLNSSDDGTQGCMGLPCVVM

[2] = molecular target: GDP-bound HRAS wild-type protein (Homo sapiens, UniProt P01112); assay: Binding to HRAS by surface plasmon resonance (SPR), Single Cycle Kinetics; conditions: for HRAS/KRAS (ratio of KD value with respect to HRAS to KD value with respect to KRAS): GDP-bound HRAS wild-type vs GDP-bound KRAS wild-type
Sequence of GDP-bound HRAS wild-type protein (P01112 whole entry): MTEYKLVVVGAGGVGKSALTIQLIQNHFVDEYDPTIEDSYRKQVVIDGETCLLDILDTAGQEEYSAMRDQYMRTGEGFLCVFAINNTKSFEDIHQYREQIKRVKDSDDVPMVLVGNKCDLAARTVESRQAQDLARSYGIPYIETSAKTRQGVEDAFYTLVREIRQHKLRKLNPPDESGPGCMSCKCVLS

[3] = KD ratio NRAS/KRAS, class symbols
[4] = KD ratio HRAS/KRAS, class symbols

For CCC[C@H]1C(=O)N[C@@H]([C@@H](C)CC)C(=O)N(C)CC(=O)N(C)[C@H]2C/C=C\CCN(C2=O)[C@@H](Cc2ccc(C)cc2)C(=O)N(C)CC(=O)N[C@@H](CCc2ccc3sc(C)c(C)c3c2)C(=O)N2C[C@H](OCC)C[C@H]2C(=O)NC2(CC(C)(C)C2)C(=O)N(C)[C@@H](C2CCCC2)C(=O)N(C)[C@H](C(=O)N(C)C)CC(=O)N1C [PP2891], the “NRAS/KRAS (ratio of KD value with respect to GDP-bound NRAS wild-type protein to KD value with respect to KRAS)” value [1, 3] was “A (a compound having 10 or more and less than 20 is denoted as A)” and the “HRAS/KRAS (ratio of KD value with respect to GDP-bound HRAS wild-type protein to KD value with respect to KRAS)” value [2, 4] was “B (a compound having 3 or more and less than 10 is denoted as B)”.

CCO[C@@H]1C[C@H]2C(=O)NC3(CCC3)C(=O)N(C)[C@@H](C3CCCC3)C(=O)N(C)[C@H](C(=O)N3CCOCC3)CC(=O)N(C)[C@@H](Cc3ccccc3C)C(=O)N[C@@H]([C@@H](C)CC)C(=O)N(C)CC(=O)N(C)[C@H]3CCCCCN(C3=O)[C@@H](Cc3ccc(C(F)(F)F)cc3)C(=O)N(C)CC(=O)N[C@@H](CCc3cc(F)c(C(F)(F)F)c(F)c3)C(=O)N2C1 [PP0931] was tested, and the “NRAS/KRAS (ratio of KD value with respect to NRAS to KD value with respect to KRAS)” value ([1]; KD ratio, SPR) was “A (a compound having 10 or more and less than 20 is denoted as A)” and the “HRAS/KRAS (ratio of KD value with respect to HRAS to KD value with respect to KRAS)” value ([2]; KD ratio, SPR) was “B (a compound having 3 or more and less than 10 is denoted as B)”.

In the case of CCC[C@H]1C(=O)N[C@@H]([C@@H](C)CC)C(=O)N(C)CC(=O)N(C)[C@H]2C/C=C\CCN(C2=O)[C@@H](Cc2ccc(C)cc2)C(=O)N(C)CC(=O)N[C@@H](CCc2ccc(C(F)(F)F)c(Cl)c2)C(=O)N2C[C@H](OCC)C[C@H]2C(=O)NC2(CC(C)(C)C2)C(=O)N(C)[C@@H](CC(C)C)C(=O)N(C)[C@H](C(=O)N(C)C)CC(=O)N1C [PP2224], the “NRAS/KRAS (ratio of KD value with respect to NRAS to KD value with respect to KRAS)” value ([1]; SPR) is reported as “A (a compound having 10 or more and less than 20 is denoted as A)” and the “HRAS/KRAS (ratio of KD value with respect to HRAS to KD value with respect to KRAS)” value ([2]; SPR) is reported as “A (a compound having 10 or more and less than 20 is denoted as A)”.

In the case of CCCN1C(=O)CN(C)C(=O)CN(C)C(=O)[C@H]([C@@H](C)CC)NC(=O)[C@H](CC(C)C)N(C)C(=O)C[C@@H](C(=O)N2CCOCC2)N(C)C(=O)[C@H](C2CCCC2)N(C)C(=O)[C@](C)(CC(C)C)NC(=O)[C@@H]2CCCN2C(=O)[C@H](CCc2cc(F)c(C(F)(F)F)c(F)c2)NC(=O)CN(C)C(=O)[C@@H]1Cc1ccc(C(F)(F)F)cc1 [PP0759] ([NMeL]I[Sar][Sar][NPrPhe(4-CF3)][Sar][hPhe(3,5-F2-4-CF3)]P[αMeL][NMeGly(cPent)][NMeD]-Morpholide; lactam N-11), the “NRAS/KRAS (ratio of KD value with respect to GDP-bound NRAS wild-type protein to KD value with respect to KRAS)” value ([1]; KD ratio NRAS/KRAS, SPR) is reported as “B (a compound having 3 or more and less than 10 is denoted as B)” and the “HRAS/KRAS (ratio of KD value with respect to GDP-bound HRAS wild-type protein to KD value with respect to KRAS)” value ([2]; KD ratio HRAS/KRAS, SPR) is reported as “B (a compound having 3 or more and less than 10 is denoted as B)”.

For CCCN1C(=O)[C@@H]2CCN2C(=O)CN(CC)C(=O)[C@H]([C@@H](C)CC)NC(=O)[C@H](CC(C)C)N(C)C(=O)C[C@@H](C(=O)N2CCOCC2)N(C)C(=O)[C@H](C2CCCC2)N(C)C(=O)C2(CCCC2)NC(=O)[C@@H]2CCCN2C(=O)[C@H](CCc2ccc(C(F)(F)F)c(Cl)c2)NC(=O)CN(C)C(=O)[C@@H]1Cc1ccc(C(F)(F)F)cc1 [PP0259] ([NMeL]I[NEtG][Aze][NPrPhe(4-CF3)][Sar][hPhe(3-Cl-4-CF3)]P[Ac5c][NMeGly(cPent)][NMeD]-Morpholide; lactam N-11), the “NRAS/KRAS (ratio of KD for GDP-bound NRAS wild-type to KD for KRAS)” value ([1]; KD ratio NRAS/KRAS, SPR) was “C (A compound having a KD ratio of 0.1 or more and less than 3 is denoted as C)” and the “HRAS/KRAS (ratio of KD for GDP-bound HRAS wild-type to KD for KRAS)” value ([2]; KD ratio HRAS/KRAS, SPR) was “B (a compound having 3 or more and less than 10 is denoted as B)”.

CC[C@H](C)[C@@H]1NC(=O)[C@H](CC(C)C)N(C)C(=O)C[C@@H](C(=O)N2CCOCC2)N(C)C(=O)[C@H](C2CCCC2)N(C)C(=O)C2(CCCC2)NC(=O)[C@@H]2CCCN2C(=O)[C@H](CCc2ccc(C(F)(F)F)c(Cl)c2)NC(=O)CN(C)C(=O)[C@H](Cc2ccc(Cl)cc2)N2C/C=C\CC[C@@H](C2=O)N(C)C(=O)CN(C)C1=O [PP0608] was tested, and the “NRAS/KRAS (ratio of KD value with respect to GDP-bound NRAS wild-type protein to KD value with respect to KRAS)” value ([1]; KD ratio NRAS/KRAS, SPR) was “C (A compound having a KD ratio of 0.1 or more and less than 3 is denoted as C)” and the “HRAS/KRAS (ratio of KD value with respect to GDP-bound HRAS wild-type protein to KD value with respect to KRAS)” value ([2]; KD ratio HRAS/KRAS, SPR) was “B (a compound having 3 or more and less than 10 is denoted as B)”.

In the case of CCC[C@H]1C(=O)N[C@@H]([C@@H](C)CC)C(=O)N(C2CC2)CC(=O)N(C)[C@H]2C/C=C\CCN(C2=O)[C@@H](Cc2ccc(C)cc2)C(=O)N(C)CC(=O)N[C@@H](CCc2ccc(Cl)c(Cl)c2)C(=O)N2C[C@H](OCC)C[C@H]2C(=O)NC2(CC(C)(C)C2)C(=O)N(C)[C@@H](CC2CCC2)C(=O)N(C)[C@H](C(=O)N(C)C)CC(=O)N1C [PP2761], the “NRAS/KRAS (ratio of KD value with respect to GDP-bound NRAS wild-type protein to KD value with respect to KRAS)” value [1, 3] is reported as “A (a compound having 10 or more and less than 20 is denoted as A)” and the “HRAS/KRAS (ratio of KD value with respect to GDP-bound HRAS wild-type protein to KD value with respect to KRAS)” value [2, 4] is reported as “A (a compound having 10 or more and less than 20 is denoted as A)”.
